# System: HCT116 colorectal cancer cells
# Test: Cisplatin sensitization assay (96 h cell viability MTS);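 also: compound concentration needed to lower the Cisplatin-alone IC50 by a set fold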
# Type: cell-based
# Details: 96 h MTS, compound plus Cisplatin
# Procedure, shortened: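 Viability was measured by MTS after 96 h co-exposure of HCT116 colorectal cells to a full-matrix dilution grid of compound and cisplatin (2-fold steps, highest final concentration 10 μM, added together). Plates were kept at 37 °C in 5% CO2, and the MTS reagent was incubated for 1 h before reading.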
row,Compound,Cisplatin Sensitization Assay
1,"Nc1nn2cc(F)cnc2c1C(=O)Nc1cnccc1O[C@H]1CN2CCC1CC2 [I-O-5, (R)-2-amino-6-fluoro-N-(4-(quinuclidin-3-yloxy)pyridin-3-yl)pyrazolo[1,5-a]pyrimidine-3-carboxamide]",+++ (Compounds with a Cisplatin sensitization value of <0.02 μM are marked with “+++.”)
2,"Nc1nn2cc(F)cnc2c1C(=O)Nc1cnccc1OC1CCOC1 (racemic) [I-O-15, (R,S)-2-amino-6-fluoro-N-(4-((tetrahydrofuran-3-yl)oxy)pyridin-3-yl)pyrazolo[1,5-a]pyrimidine-3-carboxamide]",+++ (Compounds with a Cisplatin sensitization value of <0.02 μM are marked with “+++.”)
3,"CN1CC2CN(C(=O)C3CCN(c4c(F)cncc4NC(=O)c4c(N)nn5cc(F)cnc45)CC3)CC2C1 (stereo not shown) [I-G-18, 2-amino-6-fluoro-N-(5-fluoro-4-(4-(5-methyloctahydropyrrolo[3,4-c]pyrrole-2-carbonyl)piperidin-1-yl)pyridin-3-yl)pyrazolo[1,5-a]pyrimidine-3-carboxamide]",+++ (Compounds with a Cisplatin sensitization value of <0.02 μM are marked with “+++.”)
4,"Cc1ccncc1-c1ccncc1NC(=O)c1c(N)nn2cc(F)cnc12 [I-C-30, 2-amino-6-fluoro-N-(4-methyl-[3,4′-bipyridin]-3′-yl)pyrazolo[1,5-a]pyrimidine-3-carboxamide]",+++ (Compounds with a Cisplatin sensitization value of <0.02 μM are marked with “+++.”)
5,"Cn1ccc2c(NC(=O)c3c(N)nn4cc(F)cnc34)cncc21 [I-C-74, 2-amino-6-fluoro-N-(1-methyl-1H-pyrrolo[2,3-c]pyridin-4-yl)pyrazolo[1,5-a]pyrimidine-3-carboxamide]",+ (Compounds with a Cisplatin sensitization value >0.2 μM but <5 μM are marked with “+.”)
6,"COC1CN(C(=O)C2CCN(c3ccncc3NC(=O)c3c(N)nn4cc(F)cnc34)CC2)C1 [I-G-78, 2-amino-6-fluoro-N-(4-(4-(3-methoxyazetidine-1-carbonyl)piperidin-1-yl)pyridin-3-yl)pyrazolo[1,5-a]pyrimidine-3-carboxamide]",+++ (Compounds with a Cisplatin sensitization value of <0.02 μM are marked with “+++.”)
7,"CN1CC2(CCN(c3ccncc3NC(=O)c3c(N)nn4cc(F)cnc34)CC2)CC1=O [I-N-236, 2-amino-6-fluoro-N-(4-(2-methyl-3-oxo-2,8-diazaspiro[4.5]decan-8-yl)pyridin-3-yl)pyrazolo[1,5-a]pyrimidine-3-carboxamide]",+++ (Compounds with a Cisplatin sensitization value of <0.02 μM are marked with “+++.”)
8,"COC1CN(C(=O)C2CCN(c3c(F)cncc3NC(=O)c3c(N)nn4cc(F)cnc34)CC2)C1 [I-G-21, 2-amino-6-fluoro-N-(5-fluoro-4-(4-(3-methoxyazetidine-1-carbonyl)piperidin-1-yl)pyridin-3-yl)pyrazolo[1,5-a]pyrimidine-3-carboxamide]",+++ (Compounds with a Cisplatin sensitization value of <0.02 μM are marked with “+++.”)
9,"Nc1nn2cc(F)cnc2c1C(=O)Nc1cncc(F)c1N1CCC(CN2CCCC2=O)CC1 [I-N-213, 2-amino-6-fluoro-N-(5-fluoro-4-(4-((2-oxopyrrolidin-1-yl)methyl)piperidin-1-yl)pyridin-3-yl)pyrazolo[1,5-a]pyrimidine-3-carboxamide]",+++ (Compounds with a Cisplatin sensitization value of <0.02 μM are marked with “+++.”)
10,"Nc1nn2cc(F)cnc2c1C(=O)Nc1cnccc1-c1ccnnc1 [I-C-26, 2-amino-6-fluoro-N-(4-(pyridazin-4-yl)pyridin-3-yl)pyrazolo[1,5-a]pyrimidine-3-carboxamide]",++ (Compounds with a Cisplatin sensitization value >0.02 μM but <0.2 μM are marked with “++.”)
11,"CN1CCOC2(CCN(c3c(F)cncc3NC(=O)c3c(N)nn4cc(F)cnc34)CC2)C1 [I-N-272, 2-amino-6-fluoro-N-(5-fluoro-4-(4-methyl-1-oxa-4,9-diazaspiro[5.5]undecan-9-yl)pyridin-3-yl)pyrazolo[1,5-a]pyrimidine-3-carboxamide]",+++ (Compounds with a Cisplatin sensitization value of <0.02 μM are marked with “+++.”)
12,"Nc1nn2cc(F)cnc2c1C(=O)Nc1cnccc1N1CCN(S(=O)(=O)C2CCOC2)CC1 (stereo not shown) [I-N-179, 2-amino-6-fluoro-N-(4-(4-((tetrahydrofuran-3-yl)sulfonyl)piperazin-1-yl)pyridin-3-yl)pyrazolo[1,5-a]pyrimidine-3-carboxamide]",+++ (Compounds with a Cisplatin sensitization value of <0.02 μM are marked with “+++.”)
13,"Nc1nn2cc(Cl)cnc2c1C(=O)Nc1cnccc1OC1CCNCC1 [I-O-80, 2-amino-6-chloro-N-(4-(piperidin-4-yloxy)pyridin-3-yl)pyrazolo[1,5-a]pyrimidine-3-carboxamide]",+++ (Compounds with a Cisplatin sensitization value of <0.02 μM are marked with “+++.”)
14,"Nc1nn2cc(F)cnc2c1C(=O)Nc1cncc(F)c1N1CCC(C(=O)N2CC(F)(F)C2)CC1 [I-G-73, 2-amino-N-(4-(4-(3,3-difluoroazetidine-1-carbonyl)piperidin-1-yl)-5-fluoropyridin-3-yl)-6-fluoropyrazolo[1,5-a]pyrimidine-3-carboxamide]",+++ (Compounds with a Cisplatin sensitization value of <0.02 μM are marked with “+++.”)
15,"Nc1nn2cc(Cl)cnc2c1C(=O)Nc1cnccc1O[C@H]1CCCNC1 [I-O-74, (S)-2-amino-6-chloro-N-(4-(piperidin-3-yloxy)pyridin-3-yl)pyrazolo[1,5-a]pyrimidine-3-carboxamide]",++ (Compounds with a Cisplatin sensitization value >0.02 μM but <0.2 μM are marked with “++.”)
16,"COC1(CN(C)C)CCN(c2ccncc2NC(=O)c2c(N)nn3cc(Cl)cnc23)CC1 [I-N-46, 2-amino-6-chloro-N-(4-(4-((dimethylamino)methyl)-4-methoxypiperidin-1-yl)pyridin-3-yl)pyrazolo[1,5-a]pyrimidine-3-carboxamide]",+++ (Compounds with a Cisplatin sensitization value of <0.02 μM are marked with “+++.”)
17,"CN1CCC(C(=O)N2CCN(c3c(F)cncc3NC(=O)c3c(N)nn4cc(F)cnc34)CC2)CC1 [I-N-128, 2-amino-6-fluoro-N-(5-fluoro-4-(4-(1-methylpiperidine-4-carbonyl)piperazin-1-yl)pyridin-3-yl)pyrazolo[1,5-a]pyrimidine-3-carboxamide]",+++ (Compounds with a Cisplatin sensitization value of <0.02 μM are marked with “+++.”)
18,"Nc1nn2cc(F)cnc2c1C(=O)Nc1cnccc1-c1cccnc1F [I-C-35, 2-amino-6-fluoro-N-(2-fluoro-[3,4′-bipyridin]-3′-yl)pyrazolo[1,5-a]pyrimidine-3-carboxamide]",+++ (Compounds with a Cisplatin sensitization value of <0.02 μM are marked with “+++.”)
19,"CS(=O)(=O)C1CCCN(c2ccncc2NC(=O)c2c(N)nn3cc(F)cnc23)C1 (stereo not shown) [I-N-221, 2-amino-6-fluoro-N-(4-(3-(methylsulfonyl)piperidin-1-yl)pyridin-3-yl)pyrazolo[1,5-a]pyrimidine-3-carboxamide]",++ (Compounds with a Cisplatin sensitization value >0.02 μM but <0.2 μM are marked with “++.”)
20,"CN1CCN(c2c(F)cncc2NC(=O)c2c(N)nn3cc(C(C)(C)C#N)cnc23)CC1 [I-N-138, 2-amino-6-(2-cyanopropan-2-yl)-N-(5-fluoro-4-(4-methylpiperazin-1-yl)pyridin-3-yl)pyrazolo[1,5-a]pyrimidine-3-carboxamide]",++ (Compounds with a Cisplatin sensitization value >0.02 μM but <0.2 μM are marked with “++.”)
21,"CN1CCC[C@H]1C(=O)N1CCN(c2ccncc2NC(=O)c2c(N)nn3cc(F)cnc23)CC1 [I-N-198, (S)-2-amino-6-fluoro-N-(4-(4-(1-methylpyrrolidine-2-carbonyl)piperazin-1-yl)pyridin-3-yl)pyrazolo[1,5-a]pyrimidine-3-carboxamide]",++ (Compounds with a Cisplatin sensitization value >0.02 μM but <0.2 μM are marked with “++.”)
22,"Nc1nn2cc(F)cnc2c1C(=O)Nc1cnccc1N1CCN2C(=O)OCC2C1 (stereo not shown) [I-N-238, 2-amino-6-fluoro-N-(4-(3-oxotetrahydro-1H-oxazolo[3,4-a]pyrazin-7(3H)-yl)pyridin-3-yl)pyrazolo[1,5-a]pyrimidine-3-carboxamide]",++ (Compounds with a Cisplatin sensitization value >0.02 μM but <0.2 μM are marked with “++.”)
23,"Nc1nn2cc(F)cnc2c1C(=O)Nc1cncc(Cl)c1N1CCC(O)C1 (stereo not shown) [I-N-284, 2-amino-N-(5-chloro-4-(3-hydroxypyrrolidin-1-yl)pyridin-3-yl)-6-fluoropyrazolo[1,5-a]pyrimidine-3-carboxamide]",+++ (Compounds with a Cisplatin sensitization value of <0.02 μM are marked with “+++.”)
24,"Nc1nn2cc(F)cnc2c1C(=O)Nc1cnccc1N1CCN(CC(F)(F)F)CC1 [I-N-20, 2-amino-6-fluoro-N-(4-(4-(2,2,2-trifluoroethyl)piperazin-1-yl)pyridin-3-yl)pyrazolo[1,5-a]pyrimidine-3-carboxamide]",+++ (Compounds with a Cisplatin sensitization value of <0.02 μM are marked with “+++.”)
25,Nc1nn2cc(F)cnc2c1C(=O)Nc1cncc(F)c1N1CCN(S(=O)(=O)C2COC2)CC1 [I-N-201],+++ (Compounds with a Cisplatin sensitization value of <0.02 μM are marked with “+++.”)
26,CN1CC[C@@H](OC2CCN(c3ccncc3NC(=O)c3c(N)nn4cc(F)cnc34)CC2)C1 [I-N-131],+++ (Compounds with a Cisplatin sensitization value of <0.02 μM are marked with “+++.”)
27,"N#CCc1cnc2c(C(=O)Nc3cnccc3OCCN)c(N)nn2c1 [I-O-83, 2-amino-N-(4-(2-aminoethoxy)pyridin-3-yl)-6-(cyanomethyl)pyrazolo[1,5-a]pyrimidine-3-carboxamide]",+++ (Compounds with a Cisplatin sensitization value of <0.02 μM are marked with “+++.”)
28,"N#CCc1cnc2c(C(=O)Nc3cnccc3N3CCCC3)c(N)nn2c1 [I-N-77, 2-amino-6-(cyanomethyl)-N-(4-(pyrrolidin-1-yl)pyridin-3-yl)pyrazolo[1,5-a]pyrimidine-3-carboxamide]",+ (Compounds with a Cisplatin sensitization value >0.2 μM but <5 μM are marked with “+.”)

# — patent US10787452B2 (Vertex Pharmaceuticals Incorporated, priority 2012, dated 2020)
